Experimental data reported in publication PMC5218480 (PLoS ONE, 2017).

Tested on: MV-4-11 cells
Experiment: Gene expression microarray analysis (Affymetrix PrimeView) and GSEA
Type: cell-based, human
Parameters: RFU PODN (11730768_x_at) / Fold change /veh PODN (11730768_x_at) / RFU LINC00158 (11744669_a_at) / Fold change /veh LINC00158 (11744669_a_at) / RFU DUSP10 (11751237_a_at) / Fold change /veh DUSP10 (11751237_a_at) / RFU ID3 (11757404_x_at) / Fold change /veh ID3 (11757404_x_at) / RFU PLEKHG5 (11737974_s_at) / Fold change /veh PLEKHG5 (11737974_s_at) / RFU LRRC4B (11730491_at) / Fold change /veh LRRC4B (11730491_at) / RFU GIMAP4 (11747438_a_at) / Fold change /veh GIMAP4 (11747438_a_at) / RFU KRT8 (11758183_x_at) / Fold change /veh KRT8 (11758183_x_at) / RFU CNN1 (11734310_a_at) / Fold change /veh CNN1 (11734310_a_at) / RFU VPS37D (11726825_at) / Fold change /veh VPS37D (11726825_at) / RFU C10orf10 (11716522_x_at) / Fold change /veh C10orf10 (11716522_x_at) / RFU KIR2DL2 /// KIR2DL4 /// KIR2DL5A /// KIR2DL5B /// KIR2DS1 /// KIR2DS2 /// KIR2DS3 /// KIR2DS4 /// KIR3DL3 /// KIR3DL3 /// KIR3DS1 (11738374_at) / Fold change /veh KIR2DL2 /// KIR2DL4 /// KIR2DL5A /// KIR2DL5B /// KIR2DS1 /// KIR2DS2 /// KIR2DS3 /// KIR2DS4 /// KIR3DL3 /// KIR3DL3 /// KIR3DS1 (11738374_at) / RFU C1QL1 (11718748_at) / Fold change /veh C1QL1 (11718748_at) / RFU TMPRSS4 (11747572_a_at) / Fold change /veh TMPRSS4 (11747572_a_at) / RFU HAMP (11756126_x_at) / Fold change /veh HAMP (11756126_x_at) / RFU RNFT2 (11725882_a_at) / Fold change /veh RNFT2 (11725882_a_at) / RFU NR4A2 (11747474_a_at) / Fold change /veh NR4A2 (11747474_a_at) / RFU ABCC12 (11746883_a_at) / Fold change /veh ABCC12 (11746883_a_at) / RFU TMEM136 (11760407_x_at) / Fold change /veh TMEM136 (11760407_x_at) / RFU CLDN22 /// WWC2 (11732394_at) / Fold change /veh CLDN22 /// WWC2 (11732394_at) / RFU HLA-DPB1 (11760878_x_at) / Fold change /veh HLA-DPB1 (11760878_x_at) / RFU SPINT1 (11716480_a_at) / Fold change /veh SPINT1 (11716480_a_at) / RFU GAP43 (11754022_s_at) / Fold change /veh GAP43 (11754022_s_at) / RFU A4GNT (11735810_at) / Fold change /veh A4GNT (11735810_at) / RFU PRB3 (11715151_x_at) / Fold change /veh PRB3 (11715151_x_at) / RFU TUBB4B (11761932_at) / Fold change /veh TUBB4B (11761932_at) / RFU CAPN14 (11732068_a_at) / Fold change /veh CAPN14 (11732068_a_at) / RFU TMCC2 (11721928_a_at) / Fold change /veh TMCC2 (11721928_a_at) / RFU IRGQ (11745062_a_at) / Fold change /veh IRGQ (11745062_a_at) / RFU FAM174B (11720279_a_at) / Fold change /veh FAM174B (11720279_a_at) / RFU TMPRSS4 (11748680_a_at) / Fold change /veh TMPRSS4 (11748680_a_at) / RFU FAM212B (11763350_a_at) / Fold change /veh FAM212B (11763350_a_at) / RFU PLEKHG5 (11743358_a_at) / Fold change /veh PLEKHG5 (11743358_a_at) / RFU ZSCAN30 (11745921_a_at) / Fold change /veh ZSCAN30 (11745921_a_at) / RFU CMKLR1 (11741424_a_at) / Fold change /veh CMKLR1 (11741424_a_at) / RFU LOC101060620 /// MAPK8IP1 (11723275_at) / Fold change /veh LOC101060620 /// MAPK8IP1 (11723275_at) / RFU SPTSSB (11747773_x_at) / Fold change /veh SPTSSB (11747773_x_at) / RFU PRSS12 (11739890_at) / Fold change /veh PRSS12 (11739890_at) / RFU BIN1 (11741810_x_at) / Fold change /veh BIN1 (11741810_x_at) / RFU WNT11 (11732464_a_at) / Fold change /veh WNT11 (11732464_a_at) / RFU C10orf10 (11716521_a_at) / Fold change /veh C10orf10 (11716521_a_at) / RFU C5orf56 (11738089_at) / Fold change /veh C5orf56 (11738089_at) / RFU CYB561 (11721691_x_at) / Fold change /veh CYB561 (11721691_x_at) / RFU ANKRD19P (11752326_a_at) / Fold change /veh ANKRD19P (11752326_a_at) / RFU OR2T12 /// OR2T33 /// OR2T8 (11738714_s_at) / Fold change /veh OR2T12 /// OR2T33 /// OR2T8 (11738714_s_at) / RFU VCAN (11748164_a_at) / Fold change /veh VCAN (11748164_a_at) / RFU JSRP1 (11732532_at) / Fold change /veh JSRP1 (11732532_at) / RFU KRTAP10-11 (11738290_x_at) / Fold change /veh KRTAP10-11 (11738290_x_at) / RFU MYO3A (11730013_a_at) / Fold change /veh MYO3A (11730013_a_at) / RFU EBF3 (11725865_a_at) / Fold change /veh EBF3 (11725865_a_at) / RFU CAMK2N1 (11719241_x_at) / Fold change /veh CAMK2N1 (11719241_x_at) / RFU C5orf56 (11738088_a_at) / Fold change /veh C5orf56 (11738088_a_at) / RFU OLFML3 (11715873_a_at) / Fold change /veh OLFML3 (11715873_a_at) / RFU LOC100653217 /// NTM (11731650_a_at) / Fold change /veh LOC100653217 /// NTM (11731650_a_at) / RFU MAPK11 (11762145_a_at) / Fold change /veh MAPK11 (11762145_a_at) / RFU FIZ1 (11724087_x_at) / Fold change /veh FIZ1 (11724087_x_at) / RFU OASL (11726364_x_at) / Fold change /veh OASL (11726364_x_at) / RFU SOX15 (11748057_x_at) / Fold change /veh SOX15 (11748057_x_at) / RFU CD79A (11719716_a_at) / Fold change /veh CD79A (11719716_a_at) / RFU HIST1H1D (11736915_at) / Fold change /veh HIST1H1D (11736915_at) / RFU CASKIN2 (11723855_a_at) / Fold change /veh CASKIN2 (11723855_a_at) / RFU LOC730098 (11760151_x_at) / Fold change /veh LOC730098 (11760151_x_at) / RFU OR4N2 (11742367_at) / Fold change /veh OR4N2 (11742367_at) / RFU PRRT2 (11749266_a_at) / Fold change /veh PRRT2 (11749266_a_at) / RFU SNX32 (11753110_a_at) / Fold change /veh SNX32 (11753110_a_at) / RFU CDHR5 (11726645_a_at) / Fold change /veh CDHR5 (11726645_a_at) / RFU RCAN1 (11760418_a_at) / Fold change /veh RCAN1 (11760418_a_at) / RFU FAM167A (11723789_a_at) / Fold change /veh FAM167A (11723789_a_at) / RFU FAM26E (11764081_at) / Fold change /veh FAM26E (11764081_at) / RFU ISYNA1 (11749810_s_at) / Fold change /veh ISYNA1 (11749810_s_at) / RFU ACY1 (11761880_at) / Fold change /veh ACY1 (11761880_at) / RFU 11764098_at / Fold change /veh 11764098_at / RFU SAMD14 (11745864_x_at) / Fold change /veh SAMD14 (11745864_x_at) / RFU NPB (11741838_a_at) / Fold change /veh NPB (11741838_a_at) / RFU TMPRSS6 (11731388_a_at) / Fold change /veh TMPRSS6 (11731388_a_at) / RFU KRTAP10-2 (11738614_at) / Fold change /veh KRTAP10-2 (11738614_at) / RFU ARHGAP8 /// PRR5-ARHGAP8 (11727945_x_at) / Fold change /veh ARHGAP8 /// PRR5-ARHGAP8 (11727945_x_at) / RFU KRTAP5-7 /// NADSYN1 (11734609_at) / Fold change /veh KRTAP5-7 /// NADSYN1 (11734609_at) / RFU RASL12 (11751679_a_at) / Fold change /veh RASL12 (11751679_a_at) / RFU CDKN2B (11736163_a_at) / Fold change /veh CDKN2B (11736163_a_at) / RFU PRF1 (11729649_at) / Fold change /veh PRF1 (11729649_at) / RFU, ZNF638 /// ZNF638-IT1 / Fold change vs veh, ZNF638 /// ZNF638-IT1 / RFU, PANK3 / Fold change vs veh, PANK3 / RFU, SH3YL1 / Fold change vs veh, SH3YL1 / RFU, ZEB2 / Fold change vs veh, ZEB2 / RFU, NRIP1 / Fold change vs veh, NRIP1 / RFU, PTTG1IP / Fold change vs veh, PTTG1IP / RFU, CAPN2 / Fold change vs veh, CAPN2 / RFU, MED14 / Fold change vs veh, MED14 / RFU, SNORA58 / Fold change vs veh, SNORA58 / RFU, C1orf63 / Fold change vs veh, C1orf63 / RFU, LRRFIP1 / Fold change vs veh, LRRFIP1 / RFU, NDUFAF7 / Fold change vs veh, NDUFAF7 / RFU, SLC12A2 / Fold change vs veh, SLC12A2 / RFU, IBTK / Fold change vs veh, IBTK / RFU, ESF1 / Fold change vs veh, ESF1 / Fold change vs veh, TMEM50B / RFU, TAOK1 / Fold change vs veh, TAOK1 / RFU, ACBD3 / Fold change vs veh, ACBD3 / RFU, TMA16 / Fold change vs veh, TMA16 / RFU, RWDD3 / Fold change vs veh, RWDD3 / RFU, BCAT1 / Fold change vs veh, BCAT1 / RFU, EDEM3 / Fold change vs veh, EDEM3 / RFU, TMEM33 / Fold change vs veh, TMEM33 / RFU, WDR75 / Fold change vs veh, WDR75 / RFU, AHCTF1 / Fold change vs veh, AHCTF1 / RFU, TFRC / Fold change vs veh, TFRC / RFU, ZDHHC17 / Fold change vs veh, ZDHHC17 / RFU, NOM1 / Fold change vs veh, NOM1 / RFU, ARL8B / Fold change vs veh, ARL8B / RFU, ZBTB11 / Fold change vs veh, ZBTB11 / RFU, TAMM41 / Fold change vs veh, TAMM41 / RFU, KIAA1704 /// LOC100996395 / Fold change vs veh, KIAA1704 /// LOC100996395 / RFU, ING1 / Fold change vs veh, ING1 / RFU, TRMT61B / Fold change vs veh, TRMT61B / RFU, FUBP3 / Fold change vs veh, FUBP3 / RFU, TP53 / Fold change vs veh, TP53 / RFU, TNKS2 / Fold change vs veh, TNKS2 / RFU, ZFP14 / Fold change vs veh, ZFP14 / RFU, ACTR2 / Fold change vs veh, ACTR2 / RFU, PPP3R1 / Fold change vs veh, PPP3R1 / RFU, PIK3R1 / Fold change vs veh, PIK3R1 / RFU, HNRNPA1 / Fold change vs veh, HNRNPA1 / RFU, RNF170 / Fold change vs veh, RNF170 / RFU, ZNF28 / Fold change vs veh, ZNF28 / RFU, RNGTT / Fold change vs veh, RNGTT / RFU, OGT / Fold change vs veh, OGT / RFU, BRD1 / Fold change vs veh, BRD1 / RFU, MARS / Fold change vs veh, MARS / RFU, ZNF655 / Fold change vs veh, ZNF655 / RFU, FAHD1 / Fold change vs veh, FAHD1 / RFU, BDP1 / Fold change vs veh, BDP1 / RFU, LRRCC1 / Fold change vs veh, LRRCC1 / RFU, ARID1A / Fold change vs veh, ARID1A / RFU, ZNF146 / Fold change vs veh, ZNF146 / RFU, ZNF330 / Fold change vs veh, ZNF330 / RFU, GPN3 / Fold change vs veh, GPN3 / RFU, C9orf123 / Fold change vs veh, C9orf123 / RFU, N4BP2L2 / Fold change vs veh, N4BP2L2 / RFU, ARFIP1 / Fold change vs veh, ARFIP1 / RFU, FAM179B / Fold change vs veh, FAM179B / RFU, BCL10 / Fold change vs veh, BCL10 / RFU, UHRF1BP1L / Fold change vs veh, UHRF1BP1L / RFU, BET1 / Fold change vs veh, BET1 / RFU, CNOT2 / Fold change vs veh, CNOT2 / RFU, ZNF268 / Fold change vs veh, ZNF268 / Fold change vs veh, ZNF507 / RFU, DGCR2 / Fold change vs veh, DGCR2 / RFU, WDSUB1 / Fold change vs veh, WDSUB1 / Fold change vs veh, HSP90B1 /// MIR3652 / RFU, ADSS / Fold change vs veh, ADSS / RFU, GK / Fold change vs veh, GK / RFU, ZNF148 / Fold change vs veh, ZNF148 / RFU, TAF9 / Fold change vs veh, TAF9 / RFU, SLC1A5 / Fold change vs veh, SLC1A5 / RFU, SLMO2 / Fold change vs veh, SLMO2 / RFU, ABCC4 / Fold change vs veh, ABCC4 / RFU, LOC101060439 /// RAP1B / Fold change vs veh, LOC101060439 /// RAP1B / RFU, RFX7 / Fold change vs veh, RFX7 / RFU, GTPBP10 / Fold change vs veh, GTPBP10 / RFU, CNEP1R1 / Fold change vs veh, CNEP1R1 / RFU, BIVM-ERCC5 /// ERCC5 / Fold change vs veh, BIVM-ERCC5 /// ERCC5 / RFU, ILF3 / Fold change vs veh, ILF3 / RFU 11762660_at / Fold change /veh 11762660_at / RFU VCAN (11757783_s_at) / Fold change /veh VCAN (11757783_s_at) / RFU DDX43 (11728927_at) / Fold change /veh DDX43 (11728927_at) / RFU KRT8 (11758188_x_at) / Fold change /veh KRT8 (11758188_x_at) / RFU NKD1 (11759106_at) / Fold change /veh NKD1 (11759106_at) / RFU SRD5A1 (11742802_a_at) / Fold change /veh SRD5A1 (11742802_a_at) / RFU TPSAB1 /// TPSB2 (11721975_s_at) / Fold change /veh TPSAB1 /// TPSB2 (11721975_s_at) / RFU GSTM3 (11746129_a_at) / Fold change /veh GSTM3 (11746129_a_at) / RFU IL23R (11737362_x_at) / Fold change /veh IL23R (11737362_x_at) / RFU TMEM51 (11727254_a_at) / Fold change /veh TMEM51 (11727254_a_at) / RFU PIWIL2 (11732686_x_at) / Fold change /veh PIWIL2 (11732686_x_at) / RFU ORM1 (11744905_x_at) / Fold change /veh ORM1 (11744905_x_at) / RFU CCDC152 (11743942_at) / Fold change /veh CCDC152 (11743942_at) / RFU ECM1 (11717891_a_at) / Fold change /veh ECM1 (11717891_a_at) / RFU IL23R (11748794_a_at) / Fold change /veh IL23R (11748794_a_at) / RFU TNFAIP8L3 (11732012_x_at) / Fold change /veh TNFAIP8L3 (11732012_x_at) / RFU MBOAT4 (11741988_at) / Fold change /veh MBOAT4 (11741988_at) / RFU 11764193_at / Fold change /veh 11764193_at / RFU TMEM53 (11763286_at) / Fold change /veh TMEM53 (11763286_at) / RFU MAGEB2 (11727129_at) / Fold change /veh MAGEB2 (11727129_at) / RFU TMEM200A (11744735_a_at) / Fold change /veh TMEM200A (11744735_a_at) / RFU CCDC152 (11751479_a_at) / Fold change /veh CCDC152 (11751479_a_at) / RFU FAM211A (11726209_a_at) / Fold change /veh FAM211A (11726209_a_at) / RFU RGS16 (11746705_a_at) / Fold change /veh RGS16 (11746705_a_at) / RFU VCAN (11755009_s_at) / Fold change /veh VCAN (11755009_s_at) / RFU RHOB (11743442_s_at) / Fold change /veh RHOB (11743442_s_at) / RFU RGS16 (11720943_a_at) / Fold change /veh RGS16 (11720943_a_at) / RFU RGS16 (11720944_at) / Fold change /veh RGS16 (11720944_at) / RFU, VPS4B / Fold change vs veh, VPS4B / RFU, CREB1 / Fold change vs veh, CREB1 / RFU, DNAJC13 / Fold change vs veh, DNAJC13 / RFU, GNAQ / Fold change vs veh, GNAQ / RFU, CDK5R1 / Fold change vs veh, CDK5R1 / RFU, ZRANB3 / Fold change vs veh, ZRANB3 / RFU, CUL4A / Fold change vs veh, CUL4A / RFU, CCNY / Fold change vs veh, CCNY / RFU, UFL1 / Fold change vs veh, UFL1 / RFU, COG3 / Fold change vs veh, COG3 / RFU, DIAPH2 / Fold change vs veh, DIAPH2 / RFU, SKA2 / Fold change vs veh, SKA2 / RFU, AFF3 / Fold change vs veh, AFF3 / RFU, LMF1 / Fold change vs veh, LMF1 / RFU, IPO11 / Fold change vs veh, IPO11 / RFU, DFFB / Fold change vs veh, DFFB / RFU, FOXP1 / Fold change vs veh, FOXP1 / RFU, CARD8 / Fold change vs veh, CARD8 / RFU, STRN3 / Fold change vs veh, STRN3 / RFU, ADK / Fold change vs veh, ADK / RFU, RASSF2 / Fold change vs veh, RASSF2 / RFU, WIPF1 / Fold change vs veh, WIPF1 / RFU, LARP1B / Fold change vs veh, LARP1B / RFU, RASA1 / Fold change vs veh, RASA1 / RFU, RB1 / Fold change vs veh, RB1 / RFU, PPFIA1 / Fold change vs veh, PPFIA1 / RFU, MAT2A / Fold change vs veh, MAT2A / RFU, CCT5 / Fold change vs veh, CCT5 / RFU, WDR92 / Fold change vs veh, WDR92 / RFU, CUX1 / Fold change vs veh, CUX1 / RFU, TTC7A / Fold change vs veh, TTC7A / RFU, TMEM135 / Fold change vs veh, TMEM135 / RFU, DEPTOR / Fold change vs veh, DEPTOR / RFU, CPM / Fold change vs veh, CPM / RFU, DNAJB6 / Fold change vs veh, DNAJB6 / RFU, CACNA2D3 / Fold change vs veh, CACNA2D3 / RFU, DTX4 / Fold change vs veh, DTX4 / RFU, TFCP2 / Fold change vs veh, TFCP2 / RFU, GMCL1 /// GMCL1P1 / Fold change vs veh, GMCL1 /// GMCL1P1 / RFU, AEBP2 / Fold change vs veh, AEBP2 / RFU, SNHG1 /// SNORD22 /// SNORD25 /// SNORD26 /// SNORD27 /// SNORD28 /// SNORD29 /// SNORD31 / Fold change vs veh, SNHG1 /// SNORD22 /// SNORD25 /// SNORD26 /// SNORD27 /// SNORD28 /// SNORD29 /// SNORD31 / Fold change (Aza/veh), C12orf56 (ProbeSet 11735607_a_at) / Fold change (ACY-1035/veh), C12orf56 (ProbeSet 11735607_a_at) / Fold change (Aza/veh), FGFR1OP (ProbeSet 11751329_s_at) / Fold change (ACY-1035/veh), FGFR1OP (ProbeSet 11751329_s_at) / Fold change (Aza/veh), VPS36 (ProbeSet 11739960_a_at) / Fold change (ACY-1035/veh), VPS36 (ProbeSet 11739960_a_at) / RFU SYPL1 (11715823_x_at) / Fold change /veh SYPL1 (11715823_x_at) / RFU IGFBP7 (11715501_s_at) / Fold change /veh IGFBP7 (11715501_s_at) / RFU REEP3 (11722064_at) / Fold change /veh REEP3 (11722064_at) / RFU IGLL1 (11728026_x_at) / Fold change /veh IGLL1 (11728026_x_at): dose or concentration left out as unconfirmed
Settings: ProbeSet 11717523_x_at; LIST B

Compound: Nc1ncn([C@@H]2O[C@H](CO)[C@@H](O)[C@H]2O)c(=O)n1 [azacitidine]
- Fold change vs veh, TMEM50B: 0.85
